Measurements taken from the METLIN SMRT retention time set (Domingo-Almenara et al. 2019).

Assay: gradient 5% acetonitrile 3 min, to 50% in 2 min, to 85% in 15 min, held 3 min, 100 µL/min
Conditions: column: Zorbax Extend-C18 2.1 x 50 mm; eluents: water / acetonitrile, 0.1% formic acid
Outline: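 Pure standards were analyzed in mixtures of ~100 molecules using HPLC coupled to a quadrupole time-of-flight mass spectrometer, in both positive and negative ionization mode. Separation used a Zorbax Extend-C18 column (2.1 × 50 mm, 1.8 μm) at 100 μL/min, with water and acetonitrile each containing 0.1% formic acid. Dead and dwell volumes were 40 μL and 900 μL, and data were collected over 3 months. Retention time was read from computationally picked adduct peaks, each inspected manually.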

Compound | RP-LC retention time
COc1ccc(OC)c(S(=O)(=O)NCC(c2cccs2)N2CCc3ccccc32)c1 (stereo not drawn) | 1010 s
Cc1cc(C)nc(Nc2nc(CC(=O)N3CCN(C4CCCCC4)CC3)cs2)n1 | 558 s
COc1ccc(NS(=O)(=O)c2ccc(N3C(=O)CCC3=O)cc2)c(OC)c1 | 703 s
Cc1ncsc1CN1CC(Oc2ccc(-c3noc(C4CC4)n3)cc2)C1 | 652 s
O=C(c1csc(-c2cccnc2)n1)N1CCN(c2ncccn2)CC1 | 648 s
CCN1C(=O)C2(CCN(C(=O)CC(C)C)CC2)c2ccccc21 | 818 s
CC1(C)CC(=O)c2cn(-c3ccc(Cl)cc3)c(=O)c(C(=O)O)c2C1 | 907 s
Cc1cc(C(=O)Nc2ccc(F)cc2F)nc2cc(-c3ccco3)nn12 | 1130 s
O=C(NCC(=O)N1CCCc2ccccc21)c1ccccc1Cl | 835 s
Fc1ccc(Cl)cc1-c1nc(Nc2ccncc2)c2nccnc2n1 | 648 s
O=C(c1cn2c(n1)COCC2)N1CCN(c2cccc(Cl)c2)CC1 | 708 s
CC(=O)N1CCC(C(=O)NCc2c(-c3ccccc3)nc3sc(C)nn23)CC1 | 729 s
COc1cccc(CNC(=O)Cn2nc3c(Oc4ccc(Cl)cc4)nccn3c2=O)c1 | 849 s
O=c1c2c(CO)c(-c3ccccc3)nn2ccn1CCc1ccccc1 | 926 s
Cc1ccc(C(=O)N2CCCC(c3ccnc(Nc4ccc(F)cc4)n3)C2)s1 (stereo not drawn) | 1020 s
CC1(C)C(=O)N(c2ccc(C#N)c(C(F)(F)F)c2)C(=O)N1CCCCO | 888 s
CN(C)c1ccc(CNc2ccc(-c3nc(-c4cccc(F)c4)no3)cn2)cc1 | 912 s
Cc1ccc(NC(=O)CN2C(=O)NC3(CCCCC3)C2=O)cc1C | 792 s
O=C(CCC1CCCC1)NCCC1CCN(C(=O)Nc2ccccc2)CC1 | 876 s

Compound | RP-LC retention time
Cc1cc2c(c(=O)n(-c3ccc(F)cc3)c(=O)n2CC(=O)Nc2ccccc2C(F)(F)F)n1C | 880 s
Cn1nnnc1C1CCCN(C(=O)Nc2ccc3c(c2)OCCO3)C1 (stereo not drawn) | 661 s
CCc1cc(C2CCCN2C(=O)NCc2ccccc2)on1 (stereo not drawn) | 766 s
CCCNc1cc(N2CCC(CCC(=O)NC(CC)CC)CC2)ncn1 | 656 s
Cc1cnc(C2CCN(S(=O)(=O)c3ccccc3)C2)n1C(C)C (stereo not drawn) | 564 s
Cn1cc(CN2CCC(C(=O)NCCC3=CCCCC3)CC2)c2cc(Cl)ccc21 | 778 s
CCOc1cc(=O)n2c(c1C(=O)Nc1cc(OC)ccc1OC)CCCC2 | 727 s
COc1cccc(CN2CC[C@@H]3CN(S(C)(=O)=O)[C@@H]3C2)c1OC | 604 s
Cc1ccc(CN2CCC(CNC(=O)c3cc(=O)n(C)c4c3c(=O)n(C)c(=O)n4C)CC2)cc1 | 625 s
O=C1CC(c2nc(-c3ccccc3Cl)no2)CN1c1ccc2c(c1)OCO2 (stereo not drawn) | 933 s
CC1=C(c2ccc(C)c(C)c2)S(=O)(=O)N=C1N1CCC(NC(=O)C2CCC2)CC1 | 853 s
CC(C)c1ccc(CNC(=O)c2cn3c(n2)CCCC3)cc1 | 675 s
CC(C)(C)c1ccc(C(=O)N2CCc3nc[nH]c3C2)cc1 | 634 s
COc1ccc(C(=O)N2CCc3ccc(C(=O)O)cc32)cc1 | 741 s
COc1ccccc1-c1nc(SCC(=O)N2CCC(C(N)=O)CC2)n[nH]1 | 614 s
O=[N+]([O-])c1cnc(Sc2ccncn2)s1 | 843 s
COc1cc(C2OC(c3ccc(Br)cc3)=NN2C(C)=O)ccc1OC(C)=O (stereo not drawn) | 1000 s
CCNS(=O)(=O)c1ccc(Cl)c(-c2nnc(-c3ccccc3)o2)c1 | 919 s
COc1ccccc1-c1cc(C(F)(F)F)n2ncc(C(=O)OCCN3CCOCC3)c2n1 | 710 s
